Laboratory results: US20160194299A1 (priority 2013, published 2016)
Values after ≈ are worked out from the molar mass of the structure shown. Like-named read-outs stand apart in the source and are kept apart here.

Key:
in vitro = details: African green monkey
Mtb = test: microbe, parasite or virus in culture; type: cell-based, Mycobacterium tuberculosis; details: Mycobacterium tuberculosis
[1] = read-out: MIC, microplate alamar blue assay (MABA; I)

| SMILES | CC50 (in vitro) [µg/mL] | MIC (Mtb; read-out: MIC (I)) [µg/mL] | MIC (Mtb; [1]) [µg/mL] |
| --- | --- | --- | --- |
| CCOC(=O)NC(=O)c1ccsc1NC(=O)c1nc2ccc(C)nc2s1 [Compound 224] | > 50 |  |  |
| CCOC(=O)NC(=O)c1cc(F)sc1NC(=O)c1nc2ccccc2s1 [Compound 16] | 25 to 50 (≈ 63.5 to 127 µM) | < 1 |  |
| O=C(NC(=O)c1ccsc1NC(=O)c1nc2cnccc2s1)OCC(F)(F)F [Compound 406] | < 25 |  | < 1 |
| CCOC(=O)NC(=O)c1cc(C)sc1NC(=O)c1nc2ccccc2s1 [Compound 14] |  | < 1 |  |
| Cc1nnc(NC(=O)c2ccsc2NC(=O)c2nc3ccccc3s2)s1 [Compound 110] |  | > 3 |  |
| CC(C)(OC(=O)NC(=O)c1ccsc1NC(=O)c1nc2ccccc2s1)C(F)(F)F [Compound 25] | 25 to 50 (≈ 54.7 to 109 µM) | < 1 |  |
| CCOC(=O)NC(=O)c1ccsc1NC(=O)c1ccc2nsnc2c1 [Compound 448] |  |  | < 1 |
| O=C(Nc1sccc1C(=O)NCC1CCCO1)c1nc2cnccc2s1 (centres unmarked) [Compound 455] |  |  | > 3 |
| O=C(Nc1sccc1C(=O)NC(=O)N1CCCCC1)c1nc2cnccc2s1 [Compound 428] | > 50 |  | 1 to 3 (≈ 2.41 to 7.22 µM) |
| CCOC(=O)NC(=O)c1ccsc1NC(=O)c1ccc2nonc2c1 [Compound 402] | < 25 |  | < 1 |
| CCOC(=O)NC(=O)c1ccsc1NC(=O)c1nc2cc(CN)cnc2s1 [Compound 416] | > 50 |  | 1 to 3 (≈ 2.47 to 7.4 µM) |
| O=C(NC(=O)c1ccsc1NC(=O)c1nc2ccccc2s1)OC1CCCC1 [Compound 31] | > 50 | < 1 |  |
| CCOC(=O)NC(=O)c1cnn(C)c1NC(=O)c1nc2ccccc2s1 [Compound 105] |  | > 3 |  |
| CCOC(=O)NC(=O)c1ccsc1NC(=O)c1nc2ccncc2s1 [Compound 458] |  |  | > 3 |
| CCOC(=O)NC(=O)c1ccccc1NC(=O)c1nc2ccccc2s1 [Compound 214] | > 50 |  |  |
| CCOC(=O)NC(=O)c1ccsc1NC(=O)c1nc2ncc(C)cc2s1 [Compound 457] |  |  | < 1 |
| CC(C)(C)OC(=O)NC(=O)c1ccsc1NC(=O)c1nc2ccccc2s1 [Compound 23] |  | < 1 |  |
| CNC(=O)CNC(=O)c1ccsc1NC(=O)c1nc2ccccc2s1 [Compound 235] | > 50 |  |  |
| O=C(Nc1sccc1C(=O)Nc1cccnn1)c1nc2cnccc2s1 [Compound 442] | 25 to 50 (≈ 65.4 to 131 µM) |  | 1 to 3 (≈ 2.61 to 7.84 µM) |
| CCOC(=O)NC(=O)c1ccsc1NC(=O)c1nc2cc(CNC(=O)OC(C)(C)C)cnc2s1 [Compound 411] | 25 to 50 (≈ 49.4 to 98.9 µM) |  | < 1 |
| CCOC(=O)NC(=O)c1ccsc1NC(=O)c1ccc2sc(C(C)C)nc2c1 [Compound 413] | > 50 |  | < 1 |

| SMILES | CC50 (in vitro) [µg/mL] | MIC (Mtb; read-out: MIC (I)) [µg/mL] | MIC (Mtb; [1]) [µg/mL] |
| --- | --- | --- | --- |
| CN(C)C(=O)NC(=O)c1ccsc1NC(=O)c1nc2ccccc2s1 [Compound 45] | > 50 | > 3 |  |
| CCOC(=O)NC(=O)c1ccsc1NC(=O)c1cc2c(s1)CCN(S(C)(=O)=O)C2 [Compound 232] | > 50 |  |  |
| CC(OC(=O)NC(=O)c1ccsc1NC(=O)c1nc2ccccc2s1)C(F)(F)F (centres unmarked) [Compound 24] | < 25 | < 1 |  |
| O=C(NC(=O)c1ccsc1NC(=O)c1nc2ccccc2s1)OCC(F)F [Compound 40] | < 25 | < 1 |  |
| O=C(NC(=O)c1ccsc1NC(=O)c1nc2ncccc2s1)OCCOCc1ccccc1 [Compound 437] | < 25 |  | < 1 |
| COC(=O)c1ccsc1NC(=O)c1nc2cnccc2s1 [Compound 432] | 25 to 50 (≈ 78.3 to 157 µM) |  | > 3 |
| O=C(Nc1sccc1C(=O)Nc1cnccn1)c1nc2cnccc2s1 [Compound 440] | 25 to 50 (≈ 65.4 to 131 µM) |  | > 3 |
| CCOC(=O)NC(=O)c1ccsc1NC(=O)c1nc(-c2ccccc2)cs1 [Compound 240] | > 50 |  |  |
| CCOC(=O)NC(=O)c1cc(Cl)sc1NC(=O)c1nc2cnccc2s1 [Compound 445] |  |  | < 1 |
| O=C(Nc1sccc1C(=O)Nc1ccccn1)c1nc2cnccc2s1 [Compound 454] |  |  | > 3 |
| COC(=O)c1cccnc1NC(=O)c1nc2ccccc2s1 [Compound 444] |  |  | 1 to 3 (≈ 3.19 to 9.57 µM) |
| CCOC(=O)NC(=O)c1ccsc1NC(=O)c1cc(=O)c2ccccc2o1 [Compound 400] | < 25 |  | < 1 |
| CN1CCN(C(=O)c2ccsc2NC(=O)c2nc3ccccc3s2)CC1 [Compound 225] | 25 to 50 (≈ 64.7 to 129 µM) |  |  |
| CCOC(=O)NC(=O)c1cc(Cl)sc1NC(=O)c1nc2ccccc2s1 [Compound 15] |  | < 1 |  |
| CCOC(=O)NC(=O)c1ccsc1NC(=O)c1cncc(NC(C)=O)c1 [Compound 22] |  | < 1 |  |
| CCOC(=O)NC(=O)c1ncsc1NC(=O)c1nc2ccccc2s1 [Compound 106] |  | > 3 |  |
| O=C(Nc1sccc1C(=O)Nc1ncco1)c1nc2cnccc2s1 [Compound 456] |  |  | 1 to 3 (≈ 2.69 to 8.08 µM) |
| CC(C)OC(=O)NC(=O)c1ccsc1NC(=O)c1cc2cccc(F)c2s1 [Compound 408] | < 25 |  | < 1 |
| CCOC(=O)NC(=O)c1ccsc1NC(=O)c1csc2c1CCN(S(C)(=O)=O)C2 [Compound 230] | > 50 |  |  |
| O=C(Nc1sccc1C(=O)Nc1ncccn1)c1nc2cnccc2s1 [Compound 441] | 25 to 50 (≈ 65.4 to 131 µM) |  | < 1 |
| O=C(Nc1sccc1C(=O)OC1CCCC1)c1nc2ccccc2s1 [Compound 429] | > 50 |  | > 3 |

| SMILES | CC50 (in vitro) [µg/mL] | MIC (Mtb; read-out: MIC (I)) [µg/mL] | MIC (Mtb; [1]) [µg/mL] |
| --- | --- | --- | --- |
| CC(C)OC(=O)NC(=O)c1ccsc1NC(=O)c1ccc2ncsc2c1 [Compound 410] | < 25 |  | < 1 |
| O=C(Nc1sccc1C(=O)N1CCNC1=O)c1nc2ccccc2s1 [Compound 226] | > 50 |  |  |
| CCOC(=O)NC(=O)c1ccsc1NC(=O)c1ccc2sc(C3CC3)nc2c1 [Compound 414] | > 50 |  | < 1 |
| CCOC(=O)NC(=O)c1ccsc1NC(=O)c1ccc(-c2csc(C)n2)cc1 [Compound 241] | > 50 |  |  |
| O=C(Nc1sccc1C(=O)N1CCOC1=O)c1nc2ccccc2s1 [Compound 107] |  | > 3 |  |
| CCOC(=O)NC(=O)c1ccsc1NC(=O)c1cn2ccc(C#N)cc2n1 [Compound 405] | < 25 |  | 1 to 3 (≈ 2.61 to 7.82 µM) |
| CCOC(=O)NC(=O)c1c(C)csc1NC(=O)c1nc2ccccc2s1 [Compound 44] | > 50 | 1 to 3 (≈ 2.57 to 7.7 µM) |  |
| COc1ccc2c(c1)C=C(C(=O)Nc1sccc1C(=O)NC(=O)OC(C)C)CO2 [Compound 404] | < 25 |  | < 1 |
| CCCCOC(=O)NC(=O)c1ccsc1NC(=O)c1nc2ccccc2s1 [Compound 19] |  | < 1 |  |
| CCOC(=O)NC(=O)c1c(NC(=O)c2nc3ccccc3s2)sc(C#N)c1C [Compound 216] | > 50 |  |  |
| CCOC(=O)NC(=O)c1ccsc1NC(=O)c1ccc2sc(C(C)(C)C)nc2c1 [Compound 415] | > 50 |  | > 3 |
| CCOC(=O)NC(=O)c1ccsc1NC(=O)c1cn2cc(S(C)(=O)=O)ccc2n1 [Compound 438] | 25 to 50 (≈ 57.3 to 115 µM) |  | < 1 |
| CCOC(=O)NC(=O)c1ccsc1NC(=O)c1cc(NC(C)=O)ccn1 [Compound 111] |  | > 3 |  |
| CCOC(=O)NC(=O)c1cc(C)sc1NC(=O)c1nc2cnccc2s1 [Compound 443] |  |  | < 1 |
| CCOC(=O)NC(=O)c1ccsc1NC(=O)c1ccc2ncsc2c1 [Compound 42] | < 25 | < 1 |  |
| O=C(NC(=O)c1ccsc1NC(=O)c1nc2ncccc2s1)OCC(F)(F)F [Compound 434] | 25 to 50 (≈ 58.1 to 116 µM) |  | > 3 |
| CCOC(=O)NC(=O)c1ccsc1NC(=O)c1cc2c(s1)CCCC2 [Compound 239] | > 50 |  |  |
| CCOS(=O)(=O)NC(=O)c1ccsc1NC(=O)c1nc2ccccc2s1 [Compound 108] |  | > 3 |  |
| COC(=O)COC(=O)NC(=O)c1ccsc1NC(=O)c1nc2cnccc2s1 [Compound 431] | 25 to 50 (≈ 59.5 to 119 µM) |  | < 1 |
| CCOC(=O)NC(=O)c1ccsc1NC(=O)c1ccc2c(c1)OCO2 [Compound 27] | < 25 | < 1 |  |
| CCOC(=O)NC(=O)c1ccsc1NC(=O)c1nc2nc(C)c(Cl)cc2s1 [Compound 409] | 25 to 50 (≈ 58.8 to 118 µM) |  | < 1 |

| SMILES | CC50 (in vitro) [µg/mL] | MIC (Mtb; read-out: MIC (I)) [µg/mL] | MIC (Mtb; [1]) [µg/mL] |
| --- | --- | --- | --- |
| COC(=O)CNC(=O)c1ccsc1NC(=O)c1nc2ccccc2s1 [Compound 234] | > 50 |  |  |
| CC(C)OC(=O)NC(=O)c1ccsc1NC(=O)c1ccc2nonc2c1 [Compound 403] | < 25 |  | < 1 |
| CC(C)OC(=O)NC(=O)c1ccsc1NC(=O)c1ccn2cnnc2c1 [Compound 452] |  |  | < 1 |
| O=C(NC(=O)c1ccsc1NC(=O)c1nc2ccccc2s1)OCCN1CCOCC1 [Compound 38] | > 50 | < 1 |  |
| COC(=O)CCCNC(=O)c1ccsc1NC(=O)c1nc2ccccc2s1 [Compound 236] | > 50 |  |  |
| CC(C)OC(=O)NC(=O)c1ccsc1NC(=O)c1cccc2cc(Cl)ccc12 [Compound 447] |  |  | 1 to 3 (≈ 2.4 to 7.2 µM) |
| COC(=O)NC(=O)c1ccsc1NC(=O)c1nc2ccccc2s1 [Compound 21] |  | < 1 |  |
| CCOC(=O)NC(=O)c1cc(C)sc1NC(=O)c1nc2ncccc2s1 [Compound 446] |  |  | < 1 |
| CC(C)(C)OC(=O)N1CCN(C(=O)c2ccsc2NC(=O)c2nc3ccccc3s2)CC1 [Compound 227] | > 50 |  |  |
| Nc1nnc(-c2ccsc2NC(=O)c2nc3ccccc3s2)o1 [Compound 210] | > 50 |  |  |
| CCOC(=O)NC(=O)c1ccsc1NC(=O)c1csc2c1CCCC2 [Compound 231] | < 25 |  |  |
| O=C(Nc1sccc1C(=O)N1CCNCC1)c1nc2ccccc2s1 [Compound 228] | < 25 |  |  |
| CCOC(=O)NC(=O)c1ccsc1NC(=O)c1nc2c(s1)N(S(C)(=O)=O)CCC2 [Compound 233] | > 50 |  |  |
| CCOC(=O)NC(=O)c1ccsc1NC(=O)c1ccn2cnnc2c1 [Compound 451] |  |  | < 1 |
| CC(C)OC(=O)NC(=O)c1ccsc1NC(=O)c1ccc2nsnc2c1 [Compound 449] |  |  | < 1 |
| CCOC(=O)NC(=O)c1ccsc1NCc1nc2ccccc2s1 [Compound 209] | > 50 |  |  |
| CCOC(=O)NC(=O)c1ccsc1NC(=O)c1ccnc2cc(Cl)ccc12 [Compound 450] |  |  | > 3 |
| CCNC(=O)NC(=O)c1ccsc1NC(=O)c1nc2ccccc2s1 [Compound 109] |  | > 3 |  |
| CCOC(=O)NC(=O)c1ccsc1NC(=O)Cc1nc2ccccc2s1 [Compound 238] | 25 to 50 (≈ 64.2 to 128 µM) |  |  |
